SMILES strings stand for the structures. Where a name gives a salt, the structure may show the parent alone.

Common to all, as to assay type: biochemical
The test system of assay [1] is serotonine (5-HT) reuptake in synaptosomes. Briefly: Inhibition of 3H-5-HT reuptake in synaptosomes. The settings on record: read-out: 5-HT-uptake IC50. The method, then: (§1) Compounds were tested for their ability to inhibit the reuptake of the monoamine neurotransmitters dopamine (DA) noradrenaline (NA) and serotonine (5-HT) in synaptosomes as described in WO 97/16451 (NeuroSearch A/S).
(§2) The test values are given as IC50 (the concentration (μM) of the test substance which inhibits the specific binding of ^3H-DA, ^3H-NA, or ^3H-5-HT by 50%).

Assay [2] concerns dopamine (DA) reuptake in synaptosomes. The experiment in a line: Inhibition of 3H-DA reuptake in synaptosomes. The settings on record: read-out: DA-uptake IC50. As to the method: as §1, §2
The test system of assay [3] is noradrenaline (NA) reuptake in synaptosomes. Briefly: Inhibition of 3H-NA reuptake in synaptosomes. The settings on record: read-out: NA-uptake IC50. As to the method:
as §1, §2

As usually defined, the IC50 is the concentration that gives 50% inhibition. Turning to `CN1[C@@H]2CC[C@H]1C[C@H](Oc1ccc(C#Cc3ccccc3)cc1)C2` [Compound C1, exo-8-Methyl-3-(4-phenylethynyl-phenoxy)-8-aza-bicyclo[3.2.1]octane fumaric acid salt], the results for the IC50 in assay [1], in assay [2] and in assay [3] were 720 nM, 24 nM and 79 nM, respectively.

Source of the values: patent publication US20110015235A1, “NOVEL PHENYLETHYNYL DERIVATIVES OF 8-AZA-BICYCLO[3.2.1]OCTANE AND THEIR USE AS MONOAMINE NEUROT[…]-UPTAKE INHIBITORS” (NeuroSearch A/S, priority 2008, published 2011).
